Structures can show the parent of a compound that is named as a salt. Where two headings read alike, the source gives them in different places.
Tests used:
[1] = Pharmacokinetics, rat oral study; format: in vivo, Sprague Dawley rats; conditions: male, Sprague Dawley, label = analyte; for Cmax: read-out: Cmax/C0
Description: Pharmacokinetic Data Analysis.
Statistical Data Analysis.
Plasma concentration vs. time data was subjected to noncompartmental pharmacokinetic (PK) analysis.

[2] = test system: Pseudomonas aeruginosa; experiment: Gyrase MIC against Gram negatives, microdilution broth method (Protocol 2)
[3] = test system: Prevotella spp.; experiment: Gyrase MIC, agar dilution method (Protocol 3); format: cell-based; conditions: 13 isolates tested
[4] = test system: Fusobacterium spp.; experiment: Gyrase MIC, agar dilution method (Protocol 3); format: cell-based; conditions: 16 isolates tested
[5] = test system: Mycobacterium tuberculosis; experiment: Mycobacterium tuberculosis serum shift MIC assay (Protocol 5); format: cell-based; conditions: ATCC 35801 / ERDMAN
Description: Protocol 5. Protocol for Mycobacterium tuberculosis Serum Shift MIC Assay
Media Prep: • 1. […] It was important that all media and supplements were sterilized prior to MICs. • 2. Prepared all media below and inoculated as described in next section. Tested all compounds against Mtb using each media. • a. […] 7H9+0.2% glycerol+2 g/L dextrose+0.85 g/L NaCl+0.003 g/L catalase (0% FBS). • c. 2×7H9+0.2% glycerol+2 g/L dextrose+0.85 g/L NaCl+0.003 g/L catalase combined with equal volume Fetal Bovine Serum (50% FBS).
Inoculum Prep: • 1. […] Typically plates were two to three weeks of age when used for this assay due to the slow growth of this organism in culture. • 2. Vortexed well, then sonicated in water bath for 30 sec providing a suspension of ˜10^8 cells/ml. […] Prepared inoculum in each of the three media formulations by diluting the BBL Prompt suspension 1/200 (for example: transferred 0.2 ml of cells to 40 ml of medium) to obtain a starting cell density of ˜10^6 cells/ml. • 4.
After 24 hours the fluorescence of each well was measured at Excitation 492 nm, Emission 595 nm.
Percent inhibition by a given compound was calculated as follows: Percent inhibition=100−([well fluorescence-average background fluorescence]/[DMSO control−average background fluorescence]×100).

[6] = test system: Enterobacter cloacae; experiment: Gyrase MIC against Gram negatives, microdilution broth method (Protocol 2); format: cell-based; conditions: 12 isolates tested
[7] = test system: N. asteroids; experiment: MIC determination procedure for Mycobacterium species (Protocol 4); format: cell-based; conditions: N. asteroids 2039
[8] = test system: S. aureus (ATCC 29213); experiment: Neutropenic rat thigh infection model; format: in vivo, Sprague Dawley rats
Description: Animals: Specific-pathogen-free, male Sprague Dawley rats weighing between 76 to 100 grams were obtained from Charles River Laboratories, Inc. (Wilmington, Mass.) and utilized in this experiment. Animals were allowed to acclimate for a minimum of seven (7) days before study commencement. Bacteria: The methicillin-sensitive Staphylococcus aureus(MSSA) ATCC strain 29213 was utilized for in vivo experimentation. The test isolate was subcultured twice onto standard microbiological agar media (trypticase soy agar with 5% sheep blood). The second transfer was made less than 24 hours before use in the preparation of the thigh infection model inoculum. Neutropenic Rat Thigh Infection Model: To induce neutropenia, rats were treated with the immunosuppressant cyclophosphamide at 150 mg/kg, administered in 1 ml by intraperitoneal (IP) injection, three day prior to infection. Rats were infected by an intramuscular (IM) 0.2 ml injection into both rear thighs with a 10^7 cfu/ml methicillin-sensitive Staphylococcus aureus 29213 suspension in normal saline. After increasing amounts of time (2-26 hours) the two rear thighs of each animal were harvested, rinsed with sterile saline, weighed, then placed in 50 ml sterile normal saline and placed on wet ice until homogenization. Approximately one-half of the total homogenized sample volume was passed through a large pore filter (to remove cartilage and large clumped pieces of tissue), diluted in saline and cultured onto agar media plates (trypticase soy agar with 5% sheep blood). All culture plates were incubated at approximately 37° C. for 18-24 hours. Colony-forming units were enumerated (in cfu/ml of homogenate) and the median for each treatment and control group was calculated. […] The median cfu/ml per group was compared to the initial bacterial density at 2 hours (Early Control) or that of the time-matched vehicle control group (Late Control; LC) group harvested simultaneously. […] After 2 hours a single group of rats (Early Control (EC) was euthanized and the thighs harvested, homogenized and plated to quantitate S. aureus burdens. The additional infected rats were treated by oral gavage with Vehicle at 10 ml/kg (20% Cavitron/1% HPMCAS-MG; […] The 8-hour treatment groups received a single treatment (QD) and were euthanized and thighs collected for cfu determination 8 hours post treatment (QD), while the 24-hour treatment groups received 2 doses 12 hours apart (q12 h) and were euthanized and thighs collected 24 hours post treatment. […] After 2 hours a single group of rats (Early Control (EC)) was euthanized and the thighs harvested, homogenized and plated to quantitate S. aureus burdens. The additional infected rats were treated by oral gavage with Vehicle at 10 ml/kg (10% Vitamin E/TPGS; […] The 8-hour treatment groups received a single treatment (QD) and were euthanized and thighs collected for cfu determination 8 hours post treatment (QD), while the 24 hour treatment groups received 2 doses 12 hours apart (q12 h) and were euthanized and thighs collected 24 hours post treatment.

[9] = 8 hours after the first dose, 10 mg/kg oral
[10] = 8 hours after the first dose, 60 mg/kg oral
[11] = 8 hours after the first dose, 100 mg/kg oral
[12] = Table 9: 10 mg/kg oral, QD, 8 Hours
[13] = Table 9: 10 mg/kg oral, q12 h, 24 Hours
[14] = Table 9: 60 mg/kg oral, QD, 8 Hours
[15] = Table 9: 60 mg/kg oral, q12 h, 24 Hours
[16] = Table 9: 100 mg/kg oral, QD, 8 Hours
[17] = Table 9: 100 mg/kg oral, q12 h, 24 Hours
[18] = plasma, 30 mg/kg, Compound W dosed orally 30 mg/kg in 0.5% MC
[19] = plasma, 100 mg/kg, Compound W dosed orally 100 mg/kg in 0.5% MC
[20] = plasma, 300 mg/kg, Compound W dosed orally 300 mg/kg in 0.5% MC
[21] = plasma, 300 mg/kg, Compound W dosed orally 300 mg/kg in 20% CAPT, 1% HPMC-AS, 1% PVP

Q: With `CCNC(=O)Nc1nc2cc(-c3cnc(C(C)(C)O)nc3)c(F)c([C@H]3CCCO3)c2[nH]1` [Compound 23, 1-ethyl-3-[6-fluoro-5-[2-(1-hydroxy-1-methyl-ethyl)pyrimidin-5-yl]-7-[(2R)-tetrahydrofuran-2-yl]-1H-benzimidazol-2-yl]urea] as the compound, how does the AUC ([1]; in vivo, 3 mg/kg, rat plasma, Compound W dosed orally 3 mg/kg in 0.5% MC, read-out: AUC) read?
A: 311 ng·h/mL

Q: And the Cmax ([1]; in vivo, 3 mg/kg, rat plasma, Compound W dosed orally 3 mg/kg in 0.5% MC)?
A: 117 ng/mL

Q: What about the AUC ([1]; in vivo, 30 mg/kg, rat plasma, Compound W dosed orally 30 mg/kg in 0.5% MC, read-out: AUC) of the same compound?
A: 22500 ng·h/mL

Q: What about the Cmax ([1]; in vivo, 30 mg/kg, rat plasma, Compound W dosed orally 30 mg/kg in 0.5% MC) of the same compound?
A: 2900 ng/mL

Q: What about the AUC ([1]; in vivo, 100 mg/kg, rat plasma, Compound W dosed orally 100 mg/kg in 0.5% MC, read-out: AUC) of the same compound?
A: 77100 ng·h/mL

Q: And the Cmax ([1]; in vivo, 100 mg/kg, rat plasma, Compound W dosed orally 100 mg/kg in 0.5% MC)?
A: 6600 ng/mL

Q: What about the AUC ([1]; in vivo, 300 mg/kg, rat plasma, Compound W dosed orally 300 mg/kg in 0.5% MC, read-out: AUC) of the same compound?
A: 223000 ng·h/mL

Q: What about the Cmax ([1]; in vivo, 300 mg/kg, rat plasma, Compound W dosed orally 300 mg/kg in 0.5% MC) of the same compound?
A: 11700 ng/mL

Q: And the AUC ([1]; in vivo, 300 mg/kg, rat plasma, Compound W dosed orally 300 mg/kg in 20% CAPT, 1% HPMC-AS, 1% PVP, read-out: AUC)?
A: 295000 ng·h/mL

Q: What about the Cmax ([1]; in vivo, 300 mg/kg, rat plasma, Compound W dosed orally 300 mg/kg in 20% CAPT, 1% HPMC-AS, 1% PVP) of the same compound?
A: 16200 ng/mL

Q: What about the AUC ([1]; plasma, 3 mg/kg, Compound W dosed orally 3 mg/kg in 0.5% MC, read-out: AUCextrap) of the same compound?
A: 314 ng·h/mL

Q: What about the AUC ([1]; plasma, 30 mg/kg, Compound W dosed orally 30 mg/kg in 0.5% MC, read-out: AUCextrap) of the same compound?
A: 22600 ng·h/mL

Q: What about the AUC ([1]; plasma, 100 mg/kg, Compound W dosed orally 100 mg/kg in 0.5% MC, read-out: AUCextrap) of the same compound?
A: 77400 ng·h/mL

Q: For `CCNC(=O)Nc1nc2cc(-c3cnc(C(C)(C)O)nc3)cc([C@H]3CCCO3)c2[nH]1` [Compound 13, methanesulfonic acid salt of 1-ethyl-3-[5-[2-(1-hydroxy-1-methyl-ethyl)pyrimidin-5-yl]-7-[(2R)-tetrahydrofuran-2-yl]-1H-benzimidazol-2-yl]urea], which MIC [2] is on record?
A: 0.33 µg/mL

Q: And the MIC90 [2]?
A: > 8 µg/mL

Q: And the MIC ([2]; PAO1)?
A: > 16 µg/mL

Q: What about the MIC90 [3] of the same compound?
A: > 16 µg/mL

Q: And the MIC90 [4]?
A: 2 µg/mL

Q: And the “MIC Range” value [4]?
A: 1 to 4 µg/mL

Q: And the MIC ([5]; M. tuberculosis Erdman ATCC 35801, read-out: MIC)?
A: 0.045 µg/mL

Q: What about the MIC ([5]; M. tuberculosis Erdman ATCC 35801 with Mouse Serum) of the same compound?
A: 2 µg/mL

Q: And the MIC90 [6]?
A: > 8 µg/mL

Q: And the MIC [7]?
A: 8 µg/mL

Q: And the “bacterial growth compared to early control” value [8, 9]?
A: held the bacterial growth of SA 29213 to at least the point of stasis

Q: And the “log reduction in burdens compared to time-matched control” value (shortened to “log reduction in burdens”) [8, 9]?
A: ~1.5 log

Q: And the “decrease of bacterial burden versus early control” value [8, 10]?
A: ~0.4 logs

Q: And the “log reduction in burdens” value [8, 10]?
A: ~1.7 log

Q: What about the “decrease of bacterial burden versus early control” value [8, 11] of the same compound?
A: ~0.5 logs

Q: And the “log reduction in burdens” value [8, 11]?
A: 1.8 log

Q: And the “decrease in bacterial density compared to early control” value ([8]; 24 hours, second dose at 12 hours, 60 and 100 mg/kg)?
A: approximately 1 log

Q: And the “reduction of bacterial density compared to late control” value (“reduction of bacterial density” below) ([8]; 24 hours, 10 mg/kg treatment group)?
A: ~1.1 log

Q: What about the “cfu levels greater than the early control” value ([8]; 24 hours, 30 mg/kg (so in the source), did not appear effective) of the same compound?
A: 0.3 logs

Q: What about the “reduction of bacterial density” value ([8]; 24 hours, 60 mg/kg) of the same compound?
A: 2.85 logs

Q: What about the “reduction of bacterial density” value ([8]; 24 hours, 100 mg/kg) of the same compound?
A: ~3 logs

Q: And the “Median Thigh Burden (Log cfu/mL)” value ([8]; Table 9: 10 mg/kg oral gavage, single treatment (QD), 8 Hours)?
A: 5.15 Log cfu/mL

Q: And the “Median Thigh Burden (Log cfu/mL)” value ([8]; Table 9: 10 mg/kg oral, 2 doses 12 hours apart (q12 h), 24 Hours)?
A: 6.02 Log cfu/mL

Q: What about the “Log Difference vs. Early Control” value [8, 12] of the same compound?
A: −0.15

Q: And the “Log Difference vs. Late Control (8-hour)” value [8, 12]?
A: −1.49

Q: What about the “Log Difference vs. Early Control” value [8, 13] of the same compound?
A: 0.72

Q: And the “Log Difference vs. Late Control (24-hour)” value [8, 13]?
A: −1.14

Q: And the “Log Difference vs. Early Control” value [8, 14]?
A: −0.35

Q: And the “Log Difference vs. Late Control (8-hour)” value [8, 14]?
A: −1.69

Q: And the “Median Thigh Burden (Log cfu/mL)” value [8, 14]?
A: 4.95 Log cfu/mL

Q: And the “Log Difference vs. Early Control” value [8, 15]?
A: −0.99

Q: What about the “Log Difference vs. Late Control (24-hour)” value [8, 15] of the same compound?
A: −2.85

Q: What about the “Median Thigh Burden (Log cfu/mL)” value [8, 15] of the same compound?
A: 4.31 Log cfu/mL

Q: And the “Log Difference vs. Early Control” value [8, 16]?
A: −0.48

Q: What about the “Log Difference vs. Late Control (8-hour)” value [8, 16] of the same compound?
A: −1.82

Q: And the “Median Thigh Burden (Log cfu/mL)” value [8, 16]?
A: 4.82 Log cfu/mL

Q: And the “Log Difference vs. Early Control” value [8, 17]?
A: −1.13

Q: And the “Log Difference vs. Late Control (24-hour)” value [8, 17]?
A: −2.99

Q: And the “Median Thigh Burden (Log cfu/mL)” value [8, 17]?
A: 4.17 Log cfu/mL

Q: What does the source list for `CCNC(=O)Nc1nc2cc(-c3cnc(C(C)(C)OP(=O)([O-])[O-])nc3)c(F)c([C@H]3CCCO3)c2[nH]1.[Na+].[Na+]` [Compound W, disodium (R)-2-(5-(2-(3-ethylureido)-6-fluoro-7-(tetrahydrofuran-2-yl)-1H-benzo[d]imidazol-5-yl)pyrimidin-2-yl)propan-2-yl phosphate]?
A: Tmax [1, 18]: 3.3 h; AUC ([1]; plasma, 30 mg/kg, Compound W dosed orally 30 mg/kg in 0.5% MC, read-out: AUC): 178 ng·h/mL; Cmax [1, 18]: 22 ng/mL; Tmax [1, 19]: 0.8 h; AUC ([1]; plasma, 100 mg/kg, Compound W dosed orally 100 mg/kg in 0.5% MC, read-out: AUC): 61 ng·h/mL; Cmax [1, 19]: 21 ng/mL; Tmax [1, 20]: 1.2 h; AUC ([1]; plasma, 300 mg/kg, Compound W dosed orally 300 mg/kg in 0.5% MC, read-out: AUC): 324 ng·h/mL; Cmax [1, 20]: 2330 ng/mL; Tmax [1, 21]: 1.8 h; AUC ([1]; plasma, 300 mg/kg, Compound W dosed orally 300 mg/kg in 20% CAPT, 1% HPMC-AS, 1% PVP, read-out: AUC): 2370 ng·h/mL; Cmax [1, 21]: 600 ng/mL

From US8481551B2, “Gyrase and topoisomerase IV inhibitors” (Vertex Pharmaceuticals Incorporated, priority 2011, dated 2013)
